# Source: publication PMC9564936 (Proceedings of the National Academy of Sciences of the …, 2022)
# What was measured:
# EF-P (A1S_2419) [1] = molecular target: T1, EF-P (A1S_2419) (Acinetobacter baumannii, UniProt A3M7E3); experiment: differential scanning fluorimetry; format: binding; details: 500 µM c-di-GMP
# T1 sequence (A3M7E3 1-189): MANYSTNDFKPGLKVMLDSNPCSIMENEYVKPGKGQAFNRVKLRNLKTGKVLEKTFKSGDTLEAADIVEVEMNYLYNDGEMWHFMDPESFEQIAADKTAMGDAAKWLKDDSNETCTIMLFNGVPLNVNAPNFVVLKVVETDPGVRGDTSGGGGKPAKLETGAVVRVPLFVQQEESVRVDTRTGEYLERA
# EF-P (A1S_2419) [2] = molecular target: T1, EF-P (A1S_2419); experiment: isothermal titration calorimetry; format: binding
smiles,measurement,setting,value
"Nc1nc2c(ncn2[C@@H]2O[C@@H]3COP(=O)(O)O[C@H]4[C@@H](O)[C@H](n5cnc6c(=O)[nH]c(N)nc65)O[C@@H]4COP(=O)(O)O[C@H]3[C@H]2O)c(=O)[nH]1 [c-di-GMP, bis-(3′-5′)-cyclic guanosine monophosphate]",thermal shift,EF-P (A1S_2419) [1],The DSF assay showed a marked shift in the melting curve of EF-P
same,Kd,EF-P of A. albensis,10.7 µM
same,Kd,EF-P (A1S_2419) [2],5.9 µM
